Measurements from patent US11180479B2 (HAPLOGEN GmbH, priority 2017, dated 2021).

What was measured:
PLA2G16 = target: T1, PLA2G16 (Homo sapiens, UniProt P53816); assay: Enzyme activity assay for PLA2G16 (Red/Green BODIPY PC-A2 fluorescence); assay type: biochemical; details: His-tagged PLA2G16, 4 min pre-incubation, compound 2 nM to 50 μM; first symbol in parentheses
T1 construct: Hexa-His (N); made in house; host or cells: E. coli BL21(DE3)
T1 sequence (P53816 1-162): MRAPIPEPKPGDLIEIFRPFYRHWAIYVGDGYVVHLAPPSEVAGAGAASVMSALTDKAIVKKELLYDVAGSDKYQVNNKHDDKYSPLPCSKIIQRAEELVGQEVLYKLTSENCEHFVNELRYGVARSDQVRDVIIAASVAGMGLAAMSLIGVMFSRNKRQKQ
Method in brief: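 N-His human PLA2G16 was expressed in E. coli and Ni-NTA purified. Enzyme in 5 mM glutathione was preincubated 4 min with compound (2 nM–50 μM final), then Red/Green BODIPY PC-A2 in DOPC/DOPG/cholesterol vesicles was added (50 mM Tris pH 8.5, 100 mM NaCl). Fluorescence increase (ex 480/em 530 nm) over 10 min gave activity; IC50 came from nonlinear regression.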

[1] = test system: picornaviruses (CVB1, HRV-A2, HRV-A23, EV-68); assay: Anti-picornavirus cytopathic effect (CPE) reduction assay on HeLa H1 cells; assay type: cell-based; details: 48 h, category from averaging EC50 values of four picornaviruses (CVB1, HRV-A2, HRV-A23, EV68), second symbol in parentheses
Method in brief: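 HeLa H1 cells pre-treated 2 h with serial compound dilutions in 2% FBS DMEM, then infected at an MOI giving full CPE in 2 days; after 48 h, viability by CellTiterBlue fluorescence (560/590 nm) normalised to infected and uninfected vehicle controls; EC50 by non-linear regression, averaged over the four viruses.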

Row | Compound | IC50 (PLA2G16) | EC50 [1]
1 | CCNC(=O)C(=O)[C@H]1CN(c2ncccn2)C(=O)[C@@H]1Cc1ccccc1 (racemic) [FP-59, Rac-2-[(3R,4R)-4-benzyl-5-oxo-1-(pyrimidin-2-yl)pyrrolidin-3-yl]-N-ethyl-2-oxo-acetamide] | < 1 µM | 1 to 10 µM
2 | O=C(NC1CC1)C(=O)[C@H]1CN(c2ccnc(Cl)n2)C(=O)[C@@H]1Cc1ccccc1 (racemic) [FP-60, Rac-2-[(3R,4R)-4-benzyl-1-(2-chloropyrimidin-4-yl)-5-oxopyrrolidin-3-yl]-N-cyclopropyl-2-oxoacetamide] | < 1 µM | 1 to 10 µM
3 | O=C(NC1CC1)C(=O)[C@H]1CN(c2ccncn2)C(=O)[C@@H]1Cc1ccccc1 (racemic) [FP-61, Rac-2-[(3R,4R)-4-benzyl-5-oxo-1-(pyrimidin-4-yl)pyrrolidin-3-yl]-N-cyclopropyl-2-oxoacetamide] | < 1 µM | 1 to 10 µM
4 | O=C(NC1CC1)C(=O)[C@H]1CN(c2ccc(Cl)nn2)C(=O)[C@@H]1Cc1ccccc1 (racemic) [FP-62, Rac-2-[(3R,4R)-4-benzyl-1-(6-chloropyridazin-3-yl)-5-oxopyrrolidin-3-yl]-N-cyclopropyl-2-oxoacetamide] | < 1 µM | < 1 µM
5 | O=C(NC1CC1)C(=O)[C@H]1CN(c2cncnc2)C(=O)[C@@H]1c1ccccc1 (racemic) [FP-63, Rac-N-cyclopropyl-2-oxo-2-[(3R,4S)-5-oxo-4-phenyl-1-(pyrimidin-5-yl)pyrrolidin-3-yl]acetamide] | < 1 µM | 1 to 10 µM
6 | O=C(NCC1CC1)C(=O)[C@H]1CN(c2cncnc2)C(=O)[C@@H]1c1ccccc1 (racemic) [FP-64, Rac-N-(cyclopropylmethyl)-2-oxo-2-[(3R,4S)-5-oxo-4-phenyl-1-(pyrimidin-5-yl)pyrrolidin-3-yl]acetamide] | < 1 µM | 1 to 10 µM
7 | N#Cc1ncncc1N1C[C@H](C(=O)C(=O)NC2CC2)[C@@H](Cc2ccccc2)C1=O (racemic) [FP-65, Rac-2-[(3R,4R)-4-benzyl-1-(4-cyanopyrimidin-5-yl)-5-oxopyrrolidin-3-yl]-N-cyclopropyl-2-oxoacetamide] | < 1 µM | 1 to 10 µM
8 | CC(F)(F)CNC(=O)C(=O)[C@H]1CN(c2cncnc2C#N)C(=O)[C@@H]1Cc1ccccc1 (racemic) [FP-66, Rac-2-[(3R,4R)-4-benzyl-1-(4-cyanopyrimidin-5-yl)-5-oxopyrrolidin-3-yl]-N-(2,2-difluoropropyl)-2-oxoacetamide] | < 1 µM | 1 to 10 µM
9 | Cc1ncncc1N1C[C@H](C(=O)C(=O)NC2CC2)[C@@H](Cc2ccccc2)C1=O (racemic) [FP-67, Rac-2-[(3R,4R)-4-benzyl-1-(4-methylpyrimidin-5-yl)-5-oxopyrrolidin-3-yl]-N-cyclopropyl-2-oxoacetamide] | < 1 µM | 1 to 10 µM
10 | Cc1ncncc1N1C[C@H](C(=O)C(=O)NCC(C)(F)F)[C@@H](Cc2ccccc2)C1=O (racemic) [FP-68, Rac-2-[(3R,4R)-4-benzyl-1-(4-methylpyrimidin-5-yl)-5-oxopyrrolidin-3-yl]-N-(2,2-difluoropropyl)-2-oxoacetamide] | < 1 µM | 1 to 10 µM
11 | O=C(NC1CC1)C(=O)[C@H]1CN(c2cccc(OCc3ccccc3)n2)C(=O)[C@@H]1Cc1ccccc1 (racemic) [FP-69, Rac-2-[(3R,4R)-4-benzyl-1-[6-(benzyloxy)pyridin-2-yl]-5-oxopyrrolidin-3-yl]-N-cyclopropyl-2-oxoacetamide] | < 1 µM | < 1 µM
12 | O=C(NC1CC1)C(=O)[C@H]1CN(c2cccc(=O)[nH]2)C(=O)[C@@H]1Cc1ccccc1 (racemic) [FP-70, Rac-2-[(3R,4R)-4-benzyl-5-oxo-1-(6-oxo-1,6-dihydropyridin-2-yl)pyrrolidin-3-yl]-N-cyclopropyl-2-oxoacetamide] | < 1 µM | < 1 µM
13 | O=C(NC1CC1)C(=O)[C@H]1CN(c2cc(Cl)cc(=O)[nH]2)C(=O)[C@@H]1Cc1ccccc1 (racemic) [FP-71, Rac-2-[(3R,4R)-4-benzyl-1-(4-chloro-6-oxo-1,6-dihydropyridin-2-yl)-5-oxopyrrolidin-3-yl]-N-cyclopropyl-2-oxoacetamide] | < 1 µM | < 1 µM
14 | O=C(NC1CC1)C(=O)[C@H]1CN(c2cc(Cl)cc(OCc3ccccc3)n2)C(=O)[C@@H]1Cc1ccccc1 (racemic) [FP-72, Rac-2-[(3R,4R)-4-benzyl-1-[6-(benzyloxy)-4-chloropyridin-2-yl]-5-oxopyrrolidin-3-yl]-N-cyclopropyl-2-oxoacetamide] | < 1 µM | < 1 µM
15 | CC(F)(F)CNC(=O)C(=O)[C@H]1CN(c2cccc(OCc3ccccc3)n2)C(=O)[C@@H]1Cc1ccccc1 (racemic) [FP-73, Rac-2-[(3R,4R)-4-benzyl-1-[6-(benzyloxy)pyridin-2-yl]-5-oxopyrrolidin-3-yl]-N-(2,2-difluoropropyl)-2-oxoacetamide] | < 1 µM | < 1 µM
16 | CC(F)(F)CNC(=O)C(=O)[C@H]1CN(c2cccc(=O)[nH]2)C(=O)[C@@H]1Cc1ccccc1 (racemic) [FP-74, Rac-2-[(3R,4R)-4-benzyl-5-oxo-1-(6-oxo-1,6-dihydropyridin-2-yl)pyrrolidin-3-yl]-N-(2,2-difluoropropyl)-2-oxoacetamide] | < 1 µM | < 1 µM
17 | Cn1cc(N2C[C@H](C(=O)C(=O)NC3CC3)[C@@H](Cc3ccccc3)C2=O)cn1 (racemic) [FP-75, Rac-2-[(3R,4R)-4-benzyl-1-(1-methyl-1H-pyrazol-4-yl)-5-oxopyrrolidin-3-yl]-N-cyclopropyl-2-oxoacetamide] | < 1 µM | < 1 µM
18 | Cn1cc(N2C[C@H](C(=O)C(=O)NCC(C)(F)F)[C@@H](Cc3ccccc3)C2=O)cn1 (racemic) [FP-76, Rac-2-[(3R,4R)-4-benzyl-1-(1-methyl-1H-pyrazol-4-yl)-5-oxopyrrolidin-3-yl]-N-(2,2-difluoropropyl)-2-oxoacetamide] | < 1 µM | < 1 µM
19 | CC(C)ONC(=O)C(=O)[C@H]1CNC(=O)[C@@H]1Cc1ccc(F)cc1 (racemic) [FP-77, Rac-2-[(3R,4R)-4-[(4-fluorophenyl)methyl]-5-oxopyrrolidin-3-yl]-2-oxo-N-(propan-2-yloxy)acetamide] | < 1 µM | 1 to 10 µM
20 | CC(C)NC(=O)C(=O)[C@H]1CNC(=O)[C@@H]1c1ccccc1 (racemic) [FP-78, Rac-2-oxo-2-[(3R,4S)-5-oxo-4-phenylpyrrolidin-3-yl]-N-(propan-2-yl)acetamide] | < 1 µM | 1 to 10 µM
21 | O=C(NC1CCCC1)C(=O)[C@H]1CNC(=O)[C@@H]1c1ccccc1 (racemic) [FP-79, Rac-N-cyclopentyl-2-oxo-2-[(3R,4S)-5-oxo-4-phenylpyrrolidin-3-yl]acetamide] | < 1 µM | < 1 µM
22 | CC(C)CNC(=O)C(=O)[C@H]1CNC(=O)[C@@H]1Cc1ccccn1 (racemic) [FP-80, Rac-N-(2-methylpropyl)-2-oxo-2-[(3R,4R)-5-oxo-4-[(pyridin-2-yl)methyl]pyrrolidin-3-yl]acetamide] | < 1 µM | < 1 µM
23 | O=C(NC1CC1)C(=O)[C@H]1CN(Cc2ccccc2)C(=O)[C@@H]1c1ccccc1 (racemic) [FP-99, Rac-2-[(3R,4S)-1-benzyl-5-oxo-4-phenylpyrrolidin-3-yl]-N-cyclopropyl-2-oxoacetamide] | < 1 µM | 1 to 10 µM
24 | Cc1cc(CN2C[C@H](C(=O)C(=O)NC3CC3)[C@@H](c3ccccc3)C2=O)no1 (racemic) [FP-100, Rac-N-cyclopropyl-2-[(3R,4S)-1-[(5-methyl-1,2-oxazol-3-yl)methyl]-5-oxo-4-phenylpyrrolidin-3-yl]-2-oxoacetamide] | < 1 µM | 1 to 10 µM
25 | Cc1cc(CN2C[C@H](C(=O)C(=O)NC(C)C)[C@@H](c3ccccc3)C2=O)no1 (racemic) [FP-101, Rac-2-[(3R,4S)-1-[(5-methyl-1,2-oxazol-3-yl)methyl]-5-oxo-4-phenylpyrrolidin-3-yl]-2-oxo-N-(propan-2-yl)acetamide] | < 1 µM | 1 to 10 µM
26 | COc1ccc(CN2C[C@H](C(=O)C(=O)NC3CC3)[C@@H](c3ccccc3)C2=O)cc1 (racemic) [FP-102, Rac-N-cyclopropyl-2-[(3R,4S)-1-[(4-methoxyphenyl)methyl]-5-oxo-4-phenylpyrrolidin-3-yl]-2-oxoacetamide] | < 1 µM | < 1 µM
27 | CCCCNC(=O)C(=O)[C@H]1CNC(=O)[C@@H]1c1ccccc1 (racemic) [FP-103, Rac-N-butyl-2-oxo-2-[(3R,4S)-5-oxo-4-phenylpyrrolidin-3-yl]acetamide] | < 1 µM | < 1 µM
28 | O=C(NCC1CC1)C(=O)[C@H]1CNC(=O)[C@@H]1Cc1ccccc1 (single isomer, unassigned) [FP-81] | < 1 µM | < 1 µM
29 | O=C(NCC1CC1)C(=O)[C@@H]1CNC(=O)[C@H]1Cc1ccccc1 (single isomer, unassigned) [FP-82] | < 1 µM | 1 to 10 µM
30 | O=C(NCC(F)F)C(=O)[C@H]1CNC(=O)[C@@H]1Cc1ccccc1 (single isomer, unassigned) [FP-83] | < 1 µM | < 1 µM
